Reference: ChEMBL document CHEMBL4368888, “Design, synthesis and biological evaluation of tryptamine salicylic acid derivatives as potential antitumor agents” (Medchemcomm, 2019)
The source made the active and inactive calls. No cut-off for these calls is given here.

Columns and labels:
[1] = system: MGC-803; assay: Cell cycle arrest in human MGC803 cells assessed as accumulation of cells at S phase at 60 uM after 24 hrs by propidium iodide staining-based flow cytometric analysis (reference value: 37.1%); type: functional
[2] = system: MGC-803; assay: Cell cycle arrest in human MGC803 cells assessed as accumulation of cells at G0/G1 phase at 20 uM after 24 hrs by propidium iodide staining-based flow cytometric analysis (reference value: 51.37%); type: functional
[3] = system: MGC-803; assay: Cell cycle arrest in human MGC803 cells assessed as accumulation of cells at G0/G1 phase at 40 uM after 24 hrs by propidium iodide staining-based flow cytometric analysis (reference value: 51.37%); type: functional
[4] = system: MGC-803; assay: Induction of apoptosis in human MGC803 cells assessed as necrotic cells at 30 uM after 24 hrs by Annexin V-FITC/propidium iodide staining-based flow cytometric analysis (reference value: 0.556%); type: functional
[5] = system: MGC-803; assay: Cell cycle arrest in human MGC803 cells assessed as accumulation of cells at G0/G1 phase at 60 uM after 24 hrs by propidium iodide staining-based flow cytometric analysis (reference value: 51.37%); type: functional
[6] = system: MGC-803; assay: Cell cycle arrest in human MGC803 cells assessed as accumulation of cells at G2/M phase after 24 hrs by propidium iodide staining-based flow cytometric analysis; type: functional
[7] = system: MGC-803; assay: Cell cycle arrest in human MGC803 cells assessed as accumulation of cells at G2/M phase at 40 uM after 24 hrs by propidium iodide staining-based flow cytometric analysis (reference value: 9.86%); type: functional
[8] = system: MGC-803; assay: Induction of apoptosis in human MGC803 cells assessed as necrotic cells at 10 uM after 24 hrs by Annexin V-FITC/propidium iodide staining-based flow cytometric analysis (reference value: 0.556%); type: functional
[9] = system: MGC-803; assay: Cell cycle arrest in human MGC803 cells assessed as accumulation of cells at S phase at 20 uM after 24 hrs by propidium iodide staining-based flow cytometric analysis (reference value: 37.1%); type: functional
[10] = system: MGC-803; assay: Antimigratory activity against human MGC803 cells after 48 hrs by scratch wound-healing assay; type: functional, cell-based
[11] = system: MGC-803; assay: Cell cycle arrest in human MGC803 cells assessed as accumulation of cells at S phase at 40 uM after 24 hrs by propidium iodide staining-based flow cytometric analysis (reference value: 37.1%); type: functional
[12] = system: MGC-803; assay: Induction of apoptosis in human MGC803 cells assessed as viable cells at 30 uM after 24 hrs by Annexin V-FITC/propidium iodide staining-based flow cytometric analysis (reference value: 94.2%); type: functional; conditions: MGC-803, 24 h, read-out: Activity
[13] = system: MGC-803; assay: Induction of apoptosis in human MGC803 cells assessed as viable cells at 20 uM after 24 hrs by Annexin V-FITC/propidium iodide staining-based flow cytometric analysis (reference value: 94.2%); type: functional; conditions: MGC-803, 24 h, read-out: Activity
[14] = system: MGC-803; assay: Inhibition of colony formation in human MGC803 cells assessed as reduction in viable cells incubated for 9 days where culture medium was changed every 3 days by crystal violet staining-based assay; type: functional, cell-based
[15] = system: MGC-803; assay: Induction of apoptosis in human MGC803 cells assessed as early apoptotic cells at 30 uM after 24 hrs by Annexin V-FITC/propidium iodide staining-based flow cytometric analysis (reference value: 1.04%); type: functional
[16] = system: MGC-803; assay: Induction of apoptosis in human MGC803 cells assessed as late apoptotic cells at 30 uM after 24 hrs by Annexin V-FITC/propidium iodide staining-based flow cytometric analysis (reference value: 4.17%); type: functional
[17] = system: MGC-803; assay: Induction of apoptosis in human MGC803 cells assessed as late apoptotic cells at 20 uM after 24 hrs by Annexin V-FITC/propidium iodide staining-based flow cytometric analysis (reference value: 4.17%); type: functional
[18] = system: MGC-803; assay: Induction of apoptosis in human MGC803 cells assessed as viable cells at 10 uM after 24 hrs by Annexin V-FITC/propidium iodide staining-based flow cytometric analysis (reference value: 94.2%); type: functional; conditions: MGC-803, 24 h, read-out: Activity
[19] = system: HepG2; assay: Antiproliferative activity against human HepG2 cells after 48 hrs by MTT assay; type: functional, cell-based; conditions: HepG2, 48 h
[20] = system: MGC-803; assay: Cell cycle arrest in human MGC803 cells assessed as accumulation of cells at G2/M phase at 20 uM after 24 hrs by propidium iodide staining-based flow cytometric analysis (reference value: 9.86%); type: functional
[21] = system: MGC-803; assay: Induction of apoptosis in human MGC803 cells assessed as late apoptotic cells at 10 uM after 24 hrs by Annexin V-FITC/propidium iodide staining-based flow cytometric analysis (reference value: 4.17%); type: functional
[22] = system: MGC-803; assay: Effect on PFK expression levels in human MGC803 cells at 10 to 40 uM after 24 hrs by Western blot analysis; type: functional, cell-based
[23] = system: A549; assay: Antiproliferative activity against human A549 cells after 48 hrs by MTT assay; type: functional, cell-based; conditions: A549, 48 h
[24] = system: MGC-803; assay: Inhibition of colony formation in human MGC803 cells assessed as reduction in viable cells at 40 uM incubated for 9 days where culture medium was changed every 3 days by crystal violet staining-based assay; type: functional
[25] = system: MGC-803; assay: Cell cycle arrest in human MGC803 cells assessed as accumulation of cells at G2/M phase at 60 uM after 24 hrs by propidium iodide staining-based flow cytometric analysis (reference value: 9.86%); type: functional
[26] = system: HeLa; assay: Antiproliferative activity against human HeLa cells after 48 hrs by MTT assay; type: functional, cell-based
[27] = system: MGC-803; assay: Induction of apoptosis in human MGC803 cells assessed as early apoptotic cells at 10 uM after 24 hrs by Annexin V-FITC/propidium iodide staining-based flow cytometric analysis (reference value: 1.04%); type: functional
[28] = system: MGC-803; assay: Induction of apoptosis in human MGC803 cells after 24 hrs by Annexin V-FITC/propidium iodide staining-based flow cytometric analysis; type: functional, cell-based
[29] = system: MGC-803; assay: Down regulation of HK2 expression levels in human MGC803 cells at 10 to 40 uM after 24 hrs by Western blot analysis; type: functional, cell-based
[30] = system: MGC-803; assay: Antiproliferative activity against human MGC803 cells after 48 hrs by MTT assay; type: functional, cell-based; conditions: MGC-803, 48 h
[31] = system: MGC-803; assay: Effect on HIF-1 expression levels in human MGC803 cells at 10 to 40 uM in presence of 100 uM CoCl2 after 24 hrs by Western blot analysis; type: functional, cell-based
[32] = system: MGC-803; assay: Induction of apoptosis in human MGC803 cells assessed as early apoptotic cells at 20 uM after 24 hrs by Annexin V-FITC/propidium iodide staining-based flow cytometric analysis (reference value: 1.04%); type: functional
[33] = system: MCF7; assay: Antiproliferative activity against human MCF7 cells after 48 hrs by MTT assay; type: functional, cell-based; conditions: MCF7, 48 h
[34] = system: MGC-803; assay: Induction of apoptosis in human MGC803 cells assessed as necrotic cells at 20 uM after 24 hrs by Annexin V-FITC/propidium iodide staining-based flow cytometric analysis (reference value: 0.556%); type: functional

- IC50 [19]: 45 µM
- IC50 [23]: 36 µM
- IC50 [26]: 52 µM
- IC50 [30]: 29 µM
- IC50 [33]: 63 µM
Structure (SMILES): Cc1cccc(C(=O)NCCc2c[nH]c3ccc(Br)cc23)c1O
- Activity [1]: 7.56%
- Activity [2]: 43%
- Activity [3]: 49.99%
- Activity [4]: 0.587%
- Activity [5]: 52.98%
- Activity [6]: Dose-dependent effect
- Activity [7]: 34.65%
- Activity [8]: 0.25%
- Activity [9]: 21.11%
- Activity [10]: Dose-dependent effect
- Activity [11]: 15.58%
- viability at 30 µM [12]: 41.3%
- viability at 20 µM [13]: 83%
- inhibition [14]: Dose-dependent effect
- Activity [15]: 42.7%
- Activity [16]: 15.4%
- Activity [17]: 9.67%
- viability at 10 µM [18]: 91.5%
- Activity [20]: 27.01%
- Activity [21]: 6.56%
- Activity [22]: inactive
- inhibition at 40 µM [24]: 100%
- Activity [25]: 40.78%
- Activity [27]: 1.66%
- Activity [28]: Dose-dependent effect
- Activity [29]: Active
- Activity [31]: inactive
- Activity [32]: 5.97%
- Activity [34]: 1.37%
